This is an account of results in patent US10344060B2 (priority 2013, dated 2019).

What all share (assay): cell-based
Assay [1] has as its target hNav1.5 (Homo sapiens, UniProt Q14524). The note with it: IonWorks Quattro; Table 6; read-out: IC50 (μM) Nav1.5. A general note: Patch clamp records ionic current or voltage across a cell membrane.
The target in assay [2] is hNav1.7 (Homo sapiens, UniProt Q15858). The note with it: read-out: IC50 (μM) Nav1.7.
The target in assay [3] is hNav1.4 (Homo sapiens, UniProt P35499). It is filed as cell-based. The note with it: Table 6; for IC50: IonWorks Quattro, read-out: IC50 (μM) Nav1.4; for Nav1.4/Nav1.7: ratio of IonWorks Quattro IC50 values.
In assay [4] the target is hNav1.3 (Homo sapiens, UniProt Q9NY46). The note with it: IonWorks Quattro; Table 6; read-out: IC50 (μM) Nav1.3.
hNav1.3, sequence (Q9NY46 whole entry): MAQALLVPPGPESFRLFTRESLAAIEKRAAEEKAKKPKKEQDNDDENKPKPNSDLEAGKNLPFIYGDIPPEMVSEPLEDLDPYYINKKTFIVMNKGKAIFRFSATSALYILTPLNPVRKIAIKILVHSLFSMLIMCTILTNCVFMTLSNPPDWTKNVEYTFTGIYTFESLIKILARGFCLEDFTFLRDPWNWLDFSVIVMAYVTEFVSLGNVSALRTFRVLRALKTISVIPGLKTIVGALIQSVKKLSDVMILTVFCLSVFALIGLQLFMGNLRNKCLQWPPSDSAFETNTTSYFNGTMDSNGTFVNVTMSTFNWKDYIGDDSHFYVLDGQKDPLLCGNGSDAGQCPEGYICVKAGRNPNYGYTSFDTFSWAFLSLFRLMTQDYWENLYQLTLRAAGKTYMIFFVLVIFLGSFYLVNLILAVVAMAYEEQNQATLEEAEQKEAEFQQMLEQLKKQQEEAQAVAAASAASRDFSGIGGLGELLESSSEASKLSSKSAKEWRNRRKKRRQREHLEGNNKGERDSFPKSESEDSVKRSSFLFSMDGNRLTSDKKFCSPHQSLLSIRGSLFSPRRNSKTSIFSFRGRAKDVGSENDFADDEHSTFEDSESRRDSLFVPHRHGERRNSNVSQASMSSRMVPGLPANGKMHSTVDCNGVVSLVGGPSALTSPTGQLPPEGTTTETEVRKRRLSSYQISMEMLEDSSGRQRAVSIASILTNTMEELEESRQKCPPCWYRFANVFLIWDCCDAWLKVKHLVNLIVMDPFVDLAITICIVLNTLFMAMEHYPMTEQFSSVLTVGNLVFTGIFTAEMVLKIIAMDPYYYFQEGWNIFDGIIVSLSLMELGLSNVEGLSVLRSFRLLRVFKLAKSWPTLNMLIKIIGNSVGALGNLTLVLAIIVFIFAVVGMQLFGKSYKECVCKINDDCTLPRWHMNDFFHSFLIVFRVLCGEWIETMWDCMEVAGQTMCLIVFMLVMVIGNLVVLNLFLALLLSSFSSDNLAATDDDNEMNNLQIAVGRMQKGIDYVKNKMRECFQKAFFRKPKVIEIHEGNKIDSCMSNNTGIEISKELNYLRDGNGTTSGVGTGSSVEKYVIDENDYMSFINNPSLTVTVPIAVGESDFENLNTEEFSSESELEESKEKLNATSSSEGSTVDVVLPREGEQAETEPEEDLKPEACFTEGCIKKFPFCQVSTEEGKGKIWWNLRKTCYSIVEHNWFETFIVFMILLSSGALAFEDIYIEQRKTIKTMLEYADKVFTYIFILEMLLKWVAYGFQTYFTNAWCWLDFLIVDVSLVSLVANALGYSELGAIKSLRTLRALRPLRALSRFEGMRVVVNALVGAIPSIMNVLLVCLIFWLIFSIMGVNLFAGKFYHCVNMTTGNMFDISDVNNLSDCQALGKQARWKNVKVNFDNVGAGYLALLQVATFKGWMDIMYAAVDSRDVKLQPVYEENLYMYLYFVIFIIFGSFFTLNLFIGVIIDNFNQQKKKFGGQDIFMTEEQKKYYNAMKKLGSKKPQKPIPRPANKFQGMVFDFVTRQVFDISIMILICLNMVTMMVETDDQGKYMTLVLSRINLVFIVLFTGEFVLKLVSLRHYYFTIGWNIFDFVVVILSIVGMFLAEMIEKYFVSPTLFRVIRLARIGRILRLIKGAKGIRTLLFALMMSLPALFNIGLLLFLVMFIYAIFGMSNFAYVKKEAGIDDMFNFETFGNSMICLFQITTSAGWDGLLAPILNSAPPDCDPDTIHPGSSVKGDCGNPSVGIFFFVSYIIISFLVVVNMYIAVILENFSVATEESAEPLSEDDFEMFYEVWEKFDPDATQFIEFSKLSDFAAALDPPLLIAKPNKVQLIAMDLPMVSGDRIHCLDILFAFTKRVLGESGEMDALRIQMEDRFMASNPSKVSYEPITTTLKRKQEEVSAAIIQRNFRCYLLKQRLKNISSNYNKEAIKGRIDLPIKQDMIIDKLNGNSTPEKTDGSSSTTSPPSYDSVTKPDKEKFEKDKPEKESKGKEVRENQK

hNav1.7, sequence (Q15858 whole entry): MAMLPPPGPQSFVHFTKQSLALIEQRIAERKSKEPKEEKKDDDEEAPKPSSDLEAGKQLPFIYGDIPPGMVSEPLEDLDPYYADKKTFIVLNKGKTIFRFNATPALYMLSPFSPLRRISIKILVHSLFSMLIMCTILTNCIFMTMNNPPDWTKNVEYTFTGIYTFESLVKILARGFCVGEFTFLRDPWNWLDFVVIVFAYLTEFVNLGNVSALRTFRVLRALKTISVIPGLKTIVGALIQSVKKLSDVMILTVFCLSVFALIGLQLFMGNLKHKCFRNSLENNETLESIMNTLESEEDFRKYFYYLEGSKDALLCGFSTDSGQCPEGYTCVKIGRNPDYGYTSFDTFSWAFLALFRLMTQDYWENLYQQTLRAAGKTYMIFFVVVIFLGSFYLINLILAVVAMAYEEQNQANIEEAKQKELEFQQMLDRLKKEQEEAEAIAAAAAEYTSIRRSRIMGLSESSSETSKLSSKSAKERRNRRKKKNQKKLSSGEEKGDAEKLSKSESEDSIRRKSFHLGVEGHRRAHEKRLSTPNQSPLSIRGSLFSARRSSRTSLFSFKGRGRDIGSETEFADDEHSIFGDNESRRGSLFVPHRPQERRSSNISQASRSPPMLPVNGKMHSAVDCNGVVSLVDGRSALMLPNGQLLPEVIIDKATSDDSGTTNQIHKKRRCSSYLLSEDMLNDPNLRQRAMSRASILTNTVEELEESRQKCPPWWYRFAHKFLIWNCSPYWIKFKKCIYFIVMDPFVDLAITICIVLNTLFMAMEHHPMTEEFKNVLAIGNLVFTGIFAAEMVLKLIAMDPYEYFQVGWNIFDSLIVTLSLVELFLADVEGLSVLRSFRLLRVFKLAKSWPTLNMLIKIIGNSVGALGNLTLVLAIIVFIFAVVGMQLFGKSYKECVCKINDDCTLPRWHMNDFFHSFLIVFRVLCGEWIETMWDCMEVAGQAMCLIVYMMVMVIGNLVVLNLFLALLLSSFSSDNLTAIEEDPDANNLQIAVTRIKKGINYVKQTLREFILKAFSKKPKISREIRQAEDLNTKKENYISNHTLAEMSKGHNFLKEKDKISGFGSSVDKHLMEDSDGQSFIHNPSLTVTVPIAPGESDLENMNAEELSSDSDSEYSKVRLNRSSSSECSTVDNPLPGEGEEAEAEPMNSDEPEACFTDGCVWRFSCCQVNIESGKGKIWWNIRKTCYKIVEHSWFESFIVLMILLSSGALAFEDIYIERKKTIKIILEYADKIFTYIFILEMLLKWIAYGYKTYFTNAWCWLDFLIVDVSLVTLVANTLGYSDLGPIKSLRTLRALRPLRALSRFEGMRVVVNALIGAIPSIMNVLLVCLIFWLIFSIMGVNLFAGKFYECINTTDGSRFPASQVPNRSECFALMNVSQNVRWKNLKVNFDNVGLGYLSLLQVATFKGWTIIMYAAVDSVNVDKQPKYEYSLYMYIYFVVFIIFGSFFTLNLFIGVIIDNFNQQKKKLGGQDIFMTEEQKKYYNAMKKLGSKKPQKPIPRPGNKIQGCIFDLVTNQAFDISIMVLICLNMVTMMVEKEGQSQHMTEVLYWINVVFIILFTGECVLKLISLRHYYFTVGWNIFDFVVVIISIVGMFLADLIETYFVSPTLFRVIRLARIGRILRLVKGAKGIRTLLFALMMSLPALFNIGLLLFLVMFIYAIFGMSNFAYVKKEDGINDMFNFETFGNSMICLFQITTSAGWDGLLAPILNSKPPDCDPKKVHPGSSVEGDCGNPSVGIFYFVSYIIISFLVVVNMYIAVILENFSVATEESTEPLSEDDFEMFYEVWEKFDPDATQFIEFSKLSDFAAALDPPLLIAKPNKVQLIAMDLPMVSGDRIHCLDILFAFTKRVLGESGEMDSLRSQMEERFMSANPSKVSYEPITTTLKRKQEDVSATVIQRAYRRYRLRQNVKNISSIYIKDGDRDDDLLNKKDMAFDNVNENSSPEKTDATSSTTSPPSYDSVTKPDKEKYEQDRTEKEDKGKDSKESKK

The term IC50 denotes the concentration that gives 50% inhibition. With `CC[C@H](C)[C@H](NC(=O)[C@@H](NC(=O)[C@H](CCCCN)NC(=O)[C@H](CCCNC(=N)N)NC(=O)[C@@H]1CSSC[C@@H]2NC(=O)[C@H](C)NC(=O)[C@H](CCCNC(=N)N)NC(=O)[C@H](CCCCN)NC(=O)[C@H](CO)NC(=O)[C@H](CC(=O)O)NC(=O)[C@@H]3CSSC[C@H](NC(=O)[C@H](CCCNC(=N)N)NC(=O)[C@H](CC(C)C)NC(=O)CNC(=O)[C@H](CCC(=O)O)NC(=O)[C@H](CSSC[C@H](NC(=O)[C@H](C)N)C(=O)N[C@@H](CCC(N)=O)C(=O)N[C@@H](CCCCN)C(=O)N[C@@H](Cc4c[nH]c5ccccc45)C(=O)N[C@@H](CCSC)C(=O)N[C@@H](Cc4c[nH]c5ccccc45)C(=O)N[C@@H]([C@@H](C)O)C(=O)N3)NC2=O)C(=O)N[C@@H](CCCCN)C(=O)N[C@@H](CC(C)C)C(=O)N[C@@H](Cc2c[nH]c3ccccc23)C(=O)N1)[C@@H](C)CC)C(N)=O` [compound 3], the IC50 amounted to 3.1 µM in assay [1], 0.004 µM in assay [2], 0.07 µM in assay [3] and 0.04 µM in assay [4]. The Nav1.4/Nav1.7 in assay [3] was 18.
For `CC[C@H](C)[C@H](NC(=O)[C@@H](NC(=O)[C@H](CCCCN)NC(=O)[C@H](CCCNC(=N)N)NC(=O)[C@@H]1CSSC[C@@H]2NC(=O)[C@H](C)NC(=O)[C@H](CCCNC(=N)N)NC(=O)[C@H](CCCCN)NC(=O)[C@H](CO)NC(=O)[C@H](CC(=O)O)NC(=O)[C@@H]3CSSC[C@H](NC(=O)[C@H](CCCNC(=N)N)NC(=O)[C@H](CC(C)C)NC(=O)CNC(=O)[C@H](CCC(=O)O)NC(=O)[C@H](CSSC[C@H](NC(=O)[C@@H](N)Cc4ccc(O)cc4)C(=O)N[C@@H](CCC(N)=O)C(=O)N[C@@H](CCCCN)C(=O)N[C@@H](Cc4c[nH]c5ccccc45)C(=O)N[C@@H](C)C(=O)N[C@@H](Cc4c[nH]c5ccccc45)C(=O)N[C@@H]([C@@H](C)O)C(=O)N3)NC2=O)C(=O)N[C@@H](CCCCN)C(=O)N[C@@H](CC(C)C)C(=O)N[C@@H](Cc2c[nH]c3ccccc23)C(=O)N1)[C@@H](C)CC)C(N)=O` [compound 7] the same measures were above 5 µM, 0.094 µM, 0.28 µM, 0.16 µM and 3.
`CC[C@H](C)[C@H](NC(=O)[C@@H](NC(=O)[C@H](CCCCN)NC(=O)[C@H](CCCNC(=N)N)NC(=O)[C@@H]1CSSC[C@@H]2NC(=O)[C@H](C)NC(=O)[C@H](CCCNC(=N)N)NC(=O)[C@H](CCCCN)NC(=O)[C@H](CO)NC(=O)[C@H](CC(=O)O)NC(=O)[C@@H]3CSSC[C@H](NC(=O)[C@H](CCCNC(=N)N)NC(=O)[C@H](CC(C)C)NC(=O)CNC(=O)[C@H](CCC(=O)O)NC(=O)[C@H](CSSC[C@H](NC(=O)[C@@H](N)Cc4ccc(O)cc4)C(=O)N[C@@H](CCC(N)=O)C(=O)N[C@@H](CCCCN)C(=O)N[C@@H](Cc4c[nH]c5ccccc45)C(=O)N[C@@H](CCSC)C(=O)N[C@@H](C)C(=O)N[C@@H]([C@@H](C)O)C(=O)N3)NC2=O)C(=O)N[C@@H](CCCCN)C(=O)N[C@@H](CC(C)C)C(=O)N[C@@H](Cc2c[nH]c3ccccc23)C(=O)N1)[C@@H](C)CC)C(N)=O` [compound 8]: the IC50 in assay [1] was above 5 µM; in assay [2] it was 0.15 µM; in assay [3] it was 0.69 µM; in assay [4], 0.94 µM. Further, in assay [3], the Nav1.4/Nav1.7 was found to be 5.
For `CC[C@H](C)[C@H](NC(=O)[C@@H](NC(=O)[C@H](CCCCN)NC(=O)[C@H](CCCNC(=N)N)NC(=O)[C@@H]1CSSC[C@@H]2NC(=O)[C@H](C)NC(=O)[C@H](CCCNC(=N)N)NC(=O)[C@H](CCCCN)NC(=O)[C@H](CO)NC(=O)[C@H](CC(=O)O)NC(=O)[C@@H]3CSSC[C@H](NC(=O)[C@H](CCCNC(=N)N)NC(=O)[C@H](CC(C)C)NC(=O)CNC(=O)[C@H](CCC(=O)O)NC(=O)[C@H](CSSC[C@H](NC(=O)[C@@H](N)Cc4ccc(O)cc4)C(=O)N[C@@H](CCC(N)=O)C(=O)N[C@@H](CCCCN)C(=O)N[C@@H](Cc4c[nH]c5ccccc45)C(=O)N[C@@H](CCSC)C(=O)N[C@@H](Cc4c[nH]c5ccccc45)C(=O)N[C@@H](C)C(=O)N3)NC2=O)C(=O)N[C@@H](CCCCN)C(=O)N[C@@H](CC(C)C)C(=O)N[C@@H](Cc2c[nH]c3ccccc23)C(=O)N1)[C@@H](C)CC)C(N)=O` [compound 9] the same measures were above 5 µM, 0.025 µM, 0.25 µM, 0.21 µM and 10.
For `CC[C@H](C)[C@H](NC(=O)[C@@H](NC(=O)[C@H](CCCCN)NC(=O)[C@H](CCCNC(=N)N)NC(=O)[C@@H]1CSSC[C@@H]2NC(=O)[C@H](C)NC(=O)[C@H](CCCNC(=N)N)NC(=O)[C@H](CCCCN)NC(=O)[C@H](C)NC(=O)[C@H](CC(=O)O)NC(=O)[C@@H]3CSSC[C@H](NC(=O)[C@H](CCCNC(=N)N)NC(=O)[C@H](CC(C)C)NC(=O)CNC(=O)[C@H](CCC(=O)O)NC(=O)[C@H](CSSC[C@H](NC(=O)[C@@H](N)Cc4ccc(O)cc4)C(=O)N[C@@H](CCC(N)=O)C(=O)N[C@@H](CCCCN)C(=O)N[C@@H](Cc4c[nH]c5ccccc45)C(=O)N[C@@H](CCSC)C(=O)N[C@@H](Cc4c[nH]c5ccccc45)C(=O)N[C@@H]([C@@H](C)O)C(=O)N3)NC2=O)C(=O)N[C@@H](CCCCN)C(=O)N[C@@H](CC(C)C)C(=O)N[C@@H](Cc2c[nH]c3ccccc23)C(=O)N1)[C@@H](C)CC)C(N)=O` [compound 11] the same measures were 3.6 µM, 0.012 µM, 0.16 µM, 0.14 µM and 13.
For `CC[C@H](C)[C@H](NC(=O)[C@@H](NC(=O)[C@H](CCCCN)NC(=O)[C@H](CCCNC(=N)N)NC(=O)[C@@H]1CSSC[C@@H]2NC(=O)[C@H](C)NC(=O)[C@H](CCCNC(=N)N)NC(=O)[C@H](C)NC(=O)[C@H](CO)NC(=O)[C@H](CC(=O)O)NC(=O)[C@@H]3CSSC[C@H](NC(=O)[C@H](CCCNC(=N)N)NC(=O)[C@H](CC(C)C)NC(=O)CNC(=O)[C@H](CCC(=O)O)NC(=O)[C@H](CSSC[C@H](NC(=O)[C@@H](N)Cc4ccc(O)cc4)C(=O)N[C@@H](CCC(N)=O)C(=O)N[C@@H](CCCCN)C(=O)N[C@@H](Cc4c[nH]c5ccccc45)C(=O)N[C@@H](CCSC)C(=O)N[C@@H](Cc4c[nH]c5ccccc45)C(=O)N[C@@H]([C@@H](C)O)C(=O)N3)NC2=O)C(=O)N[C@@H](CCCCN)C(=O)N[C@@H](CC(C)C)C(=O)N[C@@H](Cc2c[nH]c3ccccc23)C(=O)N1)[C@@H](C)CC)C(N)=O` [compound 12] the same measures were above 5 µM, 0.022 µM, 0.26 µM, 0.15 µM and 12.
